Assay results: the CheMixHub viscosity set

Assay: xn = mol fraction of the nth substance listed

N[C@@H](Cc1c[nH]cn1)C(=O)[O-].[K+] + O
viscosity [mPa·s], 101.3 kPa
Conditions | 293.15 K | 298.15 K | 303.15 K | 308.15 K | 313.15 K | 318.15 K | 323.15 K
x1 = 0.00475 | 1.09 | 0.9617 | 0.8629 | 0.7803 | 0.7087 | 0.648 | 0.5955
x1 = 0.00983 | 1.242 | 1.093 | 0.9797 | 0.8847 | 0.8025 | 0.7344 | 0.6734
x1 = 0.0145 | 1.421 | 1.252 | 1.119 | 1.007 | 0.9131 | 0.8323 | 0.7621
x1 = 0.02037 | 1.662 | 1.457 | 1.299 | 1.167 | 1.053 | 0.9568 | 0.8736
x1 = 0.03224 | 2.28 | 2.002 | 1.768 | 1.578 | 1.417 | 1.279 | 1.164
x1 = 0.04399 | 3.048 | 2.632 | 2.315 | 2.049 | 1.828 | 1.641 | 1.484

C[N+](=O)[O-] + CO
viscosity [mPa·s]
Conditions | 293.15 K | 298.15 K | 303.15 K | 313.15 K
101 kPa, x1 = 0.0771 | – | 0.5277 | – | –
101 kPa, x1 = 0.1586 | – | 0.5151 | – | –
101 kPa, x1 = 0.216 | – | 0.503 | – | –
101 kPa, x1 = 0.238 | – | 0.502 | – | –
101 kPa, x1 = 0.24 | – | 0.501 | – | –
101 kPa, x1 = 0.244 | – | 0.5 | – | –
101 kPa, x1 = 0.2441 | – | 0.5082 | – | –
101 kPa, x1 = 0.3345 | – | 0.5081 | – | –
101 kPa, x1 = 0.4298 | – | 0.5102 | – | –
101 kPa, x1 = 0.496 | – | 0.495 | – | –
101 kPa, x1 = 0.5305 | – | 0.5169 | – | –
101 kPa, x1 = 0.539 | – | 0.497 | – | –
101 kPa, x1 = 0.579 | – | 0.5 | – | –
101 kPa, x1 = 0.6375 | – | 0.5265 | – | –
101 kPa, x1 = 0.7509 | – | 0.5426 | – | –
101 kPa, x1 = 0.861 | – | 0.55 | – | –
101 kPa, x1 = 0.863 | – | 0.55 | – | –
101 kPa, x1 = 0.8715 | – | 0.5721 | – | –
101 kPa, x1 = 0.875 | – | 0.554 | – | –
101.33 kPa, x2 = 0.0503 | 0.617 | – | 0.551 | 0.493
101.33 kPa, x2 = 0.1004 | 0.596 | – | 0.528 | 0.473
101.33 kPa, x2 = 0.15 | 0.575 | – | 0.511 | 0.458
101.33 kPa, x2 = 0.2003 | 0.561 | – | 0.498 | 0.445
101.33 kPa, x2 = 0.2501 | 0.552 | – | 0.489 | 0.435
101.33 kPa, x2 = 0.3 | 0.542 | – | 0.479 | 0.427
101.33 kPa, x2 = 0.3502 | 0.536 | – | 0.474 | 0.421
101.33 kPa, x2 = 0.4 | 0.531 | – | 0.469 | 0.416
101.33 kPa, x2 = 0.4501 | 0.527 | – | 0.464 | 0.412
101.33 kPa, x2 = 0.5 | 0.525 | – | 0.461 | 0.408
101.33 kPa, x2 = 0.55 | 0.524 | – | 0.459 | 0.406
101.33 kPa, x2 = 0.6001 | 0.524 | – | 0.459 | 0.405
101.33 kPa, x2 = 0.65 | 0.525 | – | 0.458 | 0.405
101.33 kPa, x2 = 0.7 | 0.526 | – | 0.461 | 0.406
101.33 kPa, x2 = 0.7501 | 0.53 | – | 0.463 | 0.409
101.33 kPa, x2 = 0.8 | 0.538 | – | 0.468 | 0.412
101.33 kPa, x2 = 0.8501 | 0.545 | – | 0.474 | 0.417
101.33 kPa, x2 = 0.9 | 0.553 | – | 0.482 | 0.423
101.33 kPa, x2 = 0.95 | 0.566 | – | 0.491 | 0.432

CCCCC(CC)COP(=O)(O)OCC(CC)CCCC (stereo unspecified) + CCCCCCC
viscosity [mPa·s], 101 kPa
Conditions | x1 = 0.0334 | x1 = 0.0721 | x1 = 0.1175 | x1 = 0.1661 | x1 = 0.2371 | x1 = 0.3181 | x1 = 0.4202 | x1 = 0.5541 | x1 = 0.7367
303.15 K | 0.4827 | 0.6407 | 0.866 | 1.16 | 1.699 | 2.494 | 3.805 | 6.131 | 10.6
313.15 K | 0.4218 | 0.5411 | 0.7073 | 0.92 | 1.301 | 1.851 | 2.738 | 4.282 | 7.192
323.15 K | 0.3705 | 0.4589 | 0.5793 | 0.7299 | 0.9935 | 1.364 | 1.95 | 2.944 | 4.774

ClC1CCCCC1 + C1CCCCC1
viscosity [mPa·s], 101.3 kPa
Conditions | x2 = 0.095 | x2 = 0.2004 | x2 = 0.2999 | x2 = 0.3989 | x2 = 0.4989 | x2 = 0.5993 | x2 = 0.6986 | x2 = 0.8004 | x2 = 0.9006
298.15 K | 1.485 | 1.394 | 1.315 | 1.241 | 1.172 | 1.106 | 1.046 | 0.9893 | 0.9379
313.15 K | 1.153 | 1.086 | 1.025 | 0.9696 | 0.9164 | 0.8667 | 0.821 | 0.7771 | 0.7392

O=c1ccn([C@@H]2O[C@H](CO)C(O)C2O)c(=O)[nH]1 (stereo partly specified) + O
viscosity [mPa·s], 101.3 kPa
Conditions | 293.15 K | 298.15 K | 303.15 K | 308.15 K | 313.15 K | 318.15 K
x1 = 0.0001846 | – | 0.895 | – | 0.723 | – | 0.599
x1 = 0.0002557 | – | 0.897 | – | 0.724 | – | 0.601
x1 = 0.00027 | 1.006 | 0.895 | 0.807 | 0.738 | 0.623 | –
x1 = 0.000318 | – | 0.898 | – | 0.726 | – | 0.602
x1 = 0.000355 | 1.008 | 0.897 | 0.809 | 0.74 | 0.625 | –
x1 = 0.0003955 | – | 0.9 | – | 0.727 | – | 0.603
x1 = 0.000448 | 1.01 | 0.899 | 0.811 | 0.742 | 0.627 | –
x1 = 0.0005076 | – | 0.902 | – | 0.729 | – | 0.605
x1 = 0.000533 | 1.012 | 0.901 | 0.813 | 0.744 | 0.628 | –
x1 = 0.0005591 | – | 0.904 | – | 0.731 | – | 0.606
x1 = 0.00063 | 1.014 | 0.903 | 0.815 | 0.746 | 0.63 | –
x1 = 0.00072 | 1.016 | 0.905 | 0.817 | 0.748 | 0.632 | –
